Measurements as given in patent publication US20140073651A1, “BENZAMIDE DERIVATIVES AS P2X7 RECEPTOR ANTAGONISTS” (Actelion Pharmaceuticals Ltd., priority 2011, published 2014).

Molecular target: T1, human recombinant P2X7 receptor (Homo sapiens, UniProt Q99572)
T1 construct: expressed in transfected cells
T1 sequence (Q99572 1-595): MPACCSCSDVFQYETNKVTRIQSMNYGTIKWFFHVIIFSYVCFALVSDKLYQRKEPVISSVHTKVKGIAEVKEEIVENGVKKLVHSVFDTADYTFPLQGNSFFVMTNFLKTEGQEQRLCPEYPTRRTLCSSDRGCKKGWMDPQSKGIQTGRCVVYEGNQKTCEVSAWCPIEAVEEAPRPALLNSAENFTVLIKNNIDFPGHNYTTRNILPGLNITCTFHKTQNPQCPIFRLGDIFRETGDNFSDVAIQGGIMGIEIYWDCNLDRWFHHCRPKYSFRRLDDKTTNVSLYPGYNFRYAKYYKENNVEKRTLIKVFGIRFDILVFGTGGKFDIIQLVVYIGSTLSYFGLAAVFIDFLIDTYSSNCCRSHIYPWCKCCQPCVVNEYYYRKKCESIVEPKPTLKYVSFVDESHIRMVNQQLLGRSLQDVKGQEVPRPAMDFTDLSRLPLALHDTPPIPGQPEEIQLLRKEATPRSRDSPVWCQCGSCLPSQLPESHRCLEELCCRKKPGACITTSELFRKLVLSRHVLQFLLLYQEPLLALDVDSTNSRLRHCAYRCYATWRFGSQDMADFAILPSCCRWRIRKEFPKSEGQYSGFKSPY
Assay: YO-PRO assay (YO-PRO-1 uptake) in HEK cells stably expressing P2X7
Type: cell-based
Conditions: HEK-293 cells expressing human recombinant P2X7 receptor; ATP 250 μM, 90 minutes; YO-PRO-1 fluorescence (FLIPR tetra); read-out: IC50 (antagonistic activity with respect to the P2X7 receptor)
Method in brief: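 Antagonist serially diluted (duplicates) on P2X7-expressing HEK cells in buffer with 0.5 μM YO-PRO-1; dye uptake followed on FLIPR Tetra over four time points. IC50 from maximum fluorescence intensity versus compound concentration.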

**Q.** How did the IC50 turn out when `O=C(NCC1(O)CCCCC1)c1cc(Nc2cnccn2)ccc1Cl` [Example 78, 2-Chloro-N-(1-hydroxy-cyclohexylmethyl)-5-(pyrazin-2-ylamino)-benzamide] was run?
**A.** The IC50 was 439 nM.

**Q.** For `CN(c1ccc(Cl)c(C(=O)NCC2(O)CCCCC2)c1)c1cnccn1` [Example 79, 2-Chloro-N-(1-hydroxy-cyclohexylmethyl)-5-(methyl-pyrazin-2-yl-amino)-benzamide], which IC50 is on record?
**A.** Its IC50 is 352 nM.

**Q.** How did the IC50 turn out when `COCCN(c1ccc(Cl)c(C(=O)NCC2(O)CCCCC2)c1)c1cnccn1` [Example 80, 2-Chloro-N-(1-hydroxy-cyclohexylmethyl)-5-[(2-methoxy-ethyl)-pyrazin-2-yl-amino]-benzamide] was run?
**A.** Its IC50 is 1430 nM.

**Q.** With `CN(c1ccc(Cl)c(C(=O)NCC2(O)CCCCC2)c1)c1cncc(Cl)n1` [Example 81, 2-Chloro-5-[(6-chloro-pyrazin-2-yl)-methyl-amino]-N-(1-hydroxy-cyclohexylmethyl)-benzamide] as the compound, how does the IC50 read?
**A.** Its IC50 is 245 nM.

**Q.** `COc1cncc(N(C)c2ccc(Cl)c(C(=O)NCC3(O)CCCCC3)c2)n1` [Example 82, 2-Chloro-N-(1-hydroxy-cyclohexylmethyl)-5-[(6-methoxy-pyrazin-2-yl)-methyl-amino]-benzamide] was tested. Which IC50 did it give?
**A.** Its IC50 is 76 nM.

**Q.** With `CNc1cncc(N(C)c2ccc(Cl)c(C(=O)NCC3(O)CCCCC3)c2)n1` [Example 83, 2-Chloro-N-(1-hydroxy-cyclohexylmethyl)-5-[methyl-(6-methylamino-pyrazin-2-yl)-amino]-benzamide] as the compound, how does the IC50 read?
**A.** Its IC50 is 57 nM.

**Q.** Which IC50 does the source give for `CN(C)c1cncc(N(C)c2ccc(Cl)c(C(=O)NCC3(O)CCCCC3)c2)n1` [Example 84, 2-Chloro-5-[(6-dimethylamino-pyrazin-2-yl)-methyl-amino]-N-(1-hydroxy-cyclohexylmethyl)-benzamide] here?
**A.** The IC50 was 65 nM.

**Q.** How did the IC50 turn out when `CN(c1ccc(Cl)c(C(=O)NCC2(O)CCCCC2)c1)c1cncc(=O)[nH]1` [Example 85, 2-Chloro-N-(1-hydroxy-cyclohexylmethyl)-5-[methyl-(6-oxo-1,6-dihydro-pyrazin-2-yl)-amino]-benzamide] was run?
**A.** The IC50 was 177 nM.

**Q.** With `CN(c1ccc(Cl)c(C(=O)NCC2(O)CCCCC2)c1)c1nccnc1Cl` [Example 86, 2-Chloro-5-[(3-chloro-pyrazin-2-yl)-methyl-amino]-N-(1-hydroxy-cyclohexylmethyl)-benzamide] as the compound, how does the IC50 read?
**A.** Its IC50 is 61 nM.

**Q.** Which IC50 does the source give for `CN(c1ccc(Cl)c(C(=O)NCC2(O)CCCCC2)c1)c1cnc(Cl)cn1` [Example 87, 2-Chloro-5-[(5-chloro-pyrazin-2-yl)-methyl-amino]-N-(1-hydroxy-cyclohexylmethyl)-benzamide] here?
**A.** The IC50 was 190 nM.

**Q.** Which IC50 does the source give for `COc1cnc(N(C)c2ccc(Cl)c(C(=O)NCC3(O)CCCCC3)c2)cn1` [Example 88, 2-Chloro-N-(1-hydroxy-cyclohexylmethyl)-5-[(5-methoxy-pyrazin-2-yl)-methyl-amino]-benzamide] here?
**A.** Its IC50 is 302 nM.

**Q.** `CN(c1ccc(Cl)c(C(=O)NCC2(O)CCCCC2)c1)c1ccc(Cl)nn1` [Example 89, 2-Chloro-5-[(6-chloro-pyridazin-3-yl)-methyl-amino]-N-(1-hydroxy-cyclohexylmethyl)-benzamide] was tested. Which IC50 did it give?
**A.** The IC50 was 271 nM.

**Q.** `CN(c1ccc(Cl)c(C(=O)NCC2(O)CCCCC2)c1)c1ccc(=O)[nH]n1` [Example 90, 2-Chloro-N-(1-hydroxy-cyclohexylmethyl)-5-[methyl-(6-oxo-1,6-dihydro-pyridazin-3-yl)-amino]-benzamide] was tested. Which IC50 did it give?
**A.** The IC50 was 905 nM.

**Q.** `COc1ccc(N(C)c2ccc(Cl)c(C(=O)NCC3(O)CCCCC3)c2)nn1` [Example 91, 2-Chloro-N-(1-hydroxy-cyclohexylmethyl)-5-[(6-methoxy-pyridazin-3-yl)-methyl-amino]-benzamide] was tested. Which IC50 did it give?
**A.** Its IC50 is 354 nM.

**Q.** `O=C(NCC1(O)CCCCC1)c1cc(Nc2ccccn2)ccc1Cl` [Example 92, 2-Chloro-N-(1-hydroxy-cyclohexylmethyl)-5-(pyridin-2-ylamino)-benzamide] was tested. Which IC50 did it give?
**A.** Its IC50 is 82 nM.

**Q.** Which IC50 does the source give for `CN(c1ccc(Cl)c(C(=O)NCC2(O)CCCCC2)c1)c1ccccn1` [Example 93, 2-Chloro-N-(1-hydroxy-cyclohexylmethyl)-5-(methyl-pyridin-2-yl-amino)-benzamide] here?
**A.** Its IC50 is 111 nM.

**Q.** How did the IC50 turn out when `O=C(NCC1(O)CCCCC1)c1cc(Nc2cccc(=O)[nH]2)ccc1Cl` [Example 94, 2-Chloro-N-(1-hydroxy-cyclohexylmethyl)-5-(6-oxo-1,6-dihydro-pyridin-2-ylamino)-benzamide] was run?
**A.** Its IC50 is 160 nM.

**Q.** How did the IC50 turn out when `CN(c1ccc(Cl)c(C(=O)NCC2(O)CCCCC2)c1)c1cccc(=O)[nH]1` [Example 95, 2-Chloro-N-(1-hydroxy-cyclohexylmethyl)-5-[methyl-(6-oxo-1,6-dihydro-pyridin-2-yl)-amino]-benzamide] was run?
**A.** Its IC50 is 351 nM.

**Q.** Which IC50 does the source give for `Cn1c(Nc2ccc(Cl)c(C(=O)NCC3(O)CCCCC3)c2)cccc1=O` [Example 96, 2-Chloro-N-(1-hydroxy-cyclohexylmethyl)-5-(1-methyl-6-oxo-1,6-dihydro-pyridin-2-ylamino)-benzamide] here?
**A.** Its IC50 is 123 nM.

**Q.** How did the IC50 turn out when `COCCn1c(Nc2ccc(Cl)c(C(=O)NCC3(O)CCCCC3)c2)cccc1=O` [Example 97, 2-Chloro-N-(1-hydroxy-cyclohexylmethyl)-5-[1-(2-methoxy-ethyl)-6-oxo-1,6-dihydro-pyridin-2-ylamino]-benzamide] was run?
**A.** The IC50 was 317 nM.

**Q.** With `COCCn1c(N(C)c2ccc(Cl)c(C(=O)NCC3(O)CCCCC3)c2)cccc1=O` [Example 98, 2-Chloro-N-(1-hydroxy-cyclohexylmethyl)-5-{[1-(2-methoxy-ethyl)-6-oxo-1,6-dihydro-pyridin-2-yl]-methyl-amino}-benzamide] as the compound, how does the IC50 read?
**A.** The IC50 was 332 nM.

**Q.** Which IC50 does the source give for `Cn1cccc(Nc2ccc(Cl)c(C(=O)NCC3(O)CCCCC3)c2)c1=O` [Example 99, 2-Chloro-N-(1-hydroxy-cyclohexylmethyl)-5-(1-methyl-2-oxo-1,2-dihydro-pyridin-3-ylamino)-benzamide] here?
**A.** Its IC50 is 148 nM.

**Q.** Which IC50 does the source give for `Cn1nccc1Nc1ccc(Cl)c(C(=O)NCC2(O)CCCCC2)c1` [Example 100, 2-Chloro-N-(1-hydroxy-cyclohexylmethyl)-5-(2-methyl-2H-pyrazol-3-ylamino)-benzamide] here?
**A.** Its IC50 is 217 nM.

**Q.** How did the IC50 turn out when `CN(c1ccc(Cl)c(C(=O)NCC2(O)CCCCC2)c1)c1ccnn1C` [Example 101, 2-Chloro-N-(1-hydroxy-cyclohexylmethyl)-5-[methyl-(2-methyl-2H-pyrazol-3-yl)-amino]-benzamide] was run?
**A.** The IC50 was 319 nM.

**Q.** With `O=C(NCC1(O)CCCCC1)c1cc(Oc2cccc(F)n2)ccc1Cl` [Example 102, 2-Chloro-5-(6-fluoro-pyridin-2-yloxy)-N-(1-hydroxy-cyclohexylmethyl)-benzamide] as the compound, how does the IC50 read?
**A.** The IC50 was 37 nM.

**Q.** With `O=C(NCC1(O)CCCCC1)c1cc(Oc2cc(F)ccn2)ccc1Cl` [Example 103, 2-Chloro-5-(4-fluoro-pyridin-2-yloxy)-N-(1-hydroxy-cyclohexylmethyl)-benzamide] as the compound, how does the IC50 read?
**A.** The IC50 was 46 nM.

**Q.** For `O=C(NCC1(O)CCCCC1)c1cc(Oc2ccnc(Cl)c2)ccc1Cl` [Example 104, 2-Chloro-5-(2-chloro-pyridin-4-yloxy)-N-(1-hydroxy-cyclohexylmethyl)-benzamide], which IC50 is on record?
**A.** The IC50 was 100 nM.

**Q.** With `O=C(NCC1(O)CCCCC1)c1cc(Oc2ccccn2)ccc1Cl` [Example 105, 2-Chloro-N-(1-hydroxy-cyclohexylmethyl)-5-(pyridin-2-yloxy)-benzamide] as the compound, how does the IC50 read?
**A.** The IC50 was 47 nM.

**Q.** `O=C(NCC1(O)CCCCC1)c1cc(Oc2ccncc2)ccc1Cl` [Example 106, 2-Chloro-N-(1-hydroxy-cyclohexylmethyl)-5-(pyridin-4-yloxy)-benzamide] was tested. Which IC50 did it give?
**A.** The IC50 was 1720 nM.

**Q.** For `O=C(NCC1(O)CCCCC1)c1cc(Oc2cccnc2)ccc1Cl` [Example 107, 2-Chloro-N-(1-hydroxy-cyclohexylmethyl)-5-(pyridin-3-yloxy)-benzamide], which IC50 is on record?
**A.** Its IC50 is 70 nM.

**Q.** With `O=C(NCC1(O)CCCCC1)c1cc(Oc2cccc(Cl)n2)ccc1Cl` [Example 108, 2-Chloro-5-(6-chloro-pyridin-2-yloxy)-N-(1-hydroxy-cyclohexylmethyl)-benzamide] as the compound, how does the IC50 read?
**A.** Its IC50 is 64 nM.

**Q.** `CNc1cccc(Oc2ccc(Cl)c(C(=O)NCC3(O)CCCCC3)c2)n1` [Example 109, 2-Chloro-N-(1-hydroxy-cyclohexylmethyl)-5-(6-methylamino-pyridin-2-yloxy)-benzamide] was tested. Which IC50 did it give?
**A.** The IC50 was 53 nM.

**Q.** `CN(C)c1cccc(Oc2ccc(Cl)c(C(=O)NCC3(O)CCCCC3)c2)n1` [Example 110, 2-Chloro-5-(6-dimethylamino-pyridin-2-yloxy)-N-(1-hydroxy-cyclohexylmethyl)-benzamide] was tested. Which IC50 did it give?
**A.** Its IC50 is 122 nM.

**Q.** With `COc1cccc(Oc2ccc(Cl)c(C(=O)NCC3(O)CCCCC3)c2)n1` [Example 111, 2-Chloro-N-(1-hydroxy-cyclohexylmethyl)-5-(6-methoxy-pyridin-2-yloxy)-benzamide] as the compound, how does the IC50 read?
**A.** The IC50 was 21 nM.

**Q.** With `O=C(NCC1(O)CCCCC1)c1cc(Oc2cccc(=O)[nH]2)ccc1Cl` [Example 112, 2-Chloro-N-(1-hydroxy-cyclohexylmethyl)-5-(6-oxo-1,6-dihydro-pyridin-2-yloxy)-benzamide] as the compound, how does the IC50 read?
**A.** Its IC50 is 43 nM.

**Q.** For `Cn1c(Oc2ccc(Cl)c(C(=O)NCC3(O)CCCCC3)c2)cccc1=O` [Example 113, 2-Chloro-N-(1-hydroxy-cyclohexylmethyl)-5-(1-methyl-6-oxo-1,6-dihydro-pyridin-2-yloxy)-benzamide], which IC50 is on record?
**A.** The IC50 was 96 nM.
